The source made the active and inactive calls.
Columns and labels:
[1] = Shn3 3'UTR reporter inhibitors, dose response, cell-based, Clone20 osteoblasts, firefly luciferase, cherry-picked (AID 624132); assay type: functional;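 note: firefly luciferase luminescence from reporter carrying the Shn3 3'UTR in osteoblasts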
INS1 = assay: beta cell apoptosis inhibitors, cytokine rescue, dose response, luminescence, retest (AID 449756); assay type: functional, cell-based; conditions: Rattus norvegicus;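 note: cell death triggered by IL-1 beta plus TNF-alpha plus IFN-gamma mixture; protective hits raise ATP signal compared with cytokine alone wells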
Protein skinhead-1 = biological target: T1, Protein skinhead-1 (Caenorhabditis elegans, UniProt P34707); assay type: functional
T1 sequence (P34707 whole entry): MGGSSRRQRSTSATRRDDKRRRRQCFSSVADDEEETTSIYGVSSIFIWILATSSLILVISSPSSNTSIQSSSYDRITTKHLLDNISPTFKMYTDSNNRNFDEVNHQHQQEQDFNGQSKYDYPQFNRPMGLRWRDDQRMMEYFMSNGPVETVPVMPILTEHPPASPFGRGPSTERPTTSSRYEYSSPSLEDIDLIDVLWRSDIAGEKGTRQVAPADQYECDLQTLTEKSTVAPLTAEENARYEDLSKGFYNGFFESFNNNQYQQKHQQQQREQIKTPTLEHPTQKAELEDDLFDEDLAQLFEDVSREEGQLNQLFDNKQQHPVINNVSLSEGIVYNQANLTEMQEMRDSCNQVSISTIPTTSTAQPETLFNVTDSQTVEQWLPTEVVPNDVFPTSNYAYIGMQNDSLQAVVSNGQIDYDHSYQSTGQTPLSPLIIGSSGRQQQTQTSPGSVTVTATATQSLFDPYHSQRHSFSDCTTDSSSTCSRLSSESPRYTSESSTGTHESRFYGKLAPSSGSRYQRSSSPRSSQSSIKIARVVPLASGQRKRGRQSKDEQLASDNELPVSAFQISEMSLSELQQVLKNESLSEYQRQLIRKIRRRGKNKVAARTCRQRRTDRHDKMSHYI

Phospholipase A2 = Phospholipase A2 (Homo sapiens, UniProt P04054); assay type: functional;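 note: confirmatory dose-response counterscreen on phospholipase A2, testing hits that came from an ultra-high-throughput screen for ATG4B inhibitors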
Chain of Phospholipase A2 (P04054 whole entry, the tested form may be a part): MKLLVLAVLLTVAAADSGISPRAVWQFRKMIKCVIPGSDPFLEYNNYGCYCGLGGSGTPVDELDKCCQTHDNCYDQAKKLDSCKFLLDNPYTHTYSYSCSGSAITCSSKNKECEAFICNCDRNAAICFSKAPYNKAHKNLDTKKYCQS

[2] = ZM109 Env clade C HIV-1 fusion inhibitors, dose response, HeLa effector, CEM target cells, luciferase, cherry-pick (AID 652058); assay type: functional, cell-based
[3] = biological target: T2, Calpain-2 catalytic subunit (Sus scrofa, UniProt P43367); assay: pig calpain II inhibitor potency, dose response, biochemical, fluorogenic peptide substrate (AID 1420); assay type: functional
T2 sequence (P43367 whole entry): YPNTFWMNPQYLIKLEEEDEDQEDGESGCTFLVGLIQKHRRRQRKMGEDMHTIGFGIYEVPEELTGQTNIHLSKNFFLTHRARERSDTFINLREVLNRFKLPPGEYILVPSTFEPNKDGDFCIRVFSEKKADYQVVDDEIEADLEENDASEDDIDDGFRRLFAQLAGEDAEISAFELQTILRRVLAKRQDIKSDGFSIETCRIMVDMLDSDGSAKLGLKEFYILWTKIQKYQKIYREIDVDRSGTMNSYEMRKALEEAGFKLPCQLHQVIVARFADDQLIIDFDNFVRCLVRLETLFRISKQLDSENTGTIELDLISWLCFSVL

[4] = biological target: T3, Ubiquitin-conjugating enzyme E2 N (Homo sapiens, UniProt P61088); assay type: functional;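 note: Dose-response confirmation in a TR-FRET assay detecting UBC13-driven polyubiquitin chain formation, inhibition measured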
T3 sequence (P61088 whole entry): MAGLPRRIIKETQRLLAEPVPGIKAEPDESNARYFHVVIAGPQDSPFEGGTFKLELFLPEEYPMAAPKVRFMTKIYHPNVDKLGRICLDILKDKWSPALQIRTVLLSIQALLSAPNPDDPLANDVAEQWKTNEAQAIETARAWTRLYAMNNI

Structure (SMILES): O=C(Nc1ccccc1Cl)/C(Cl)=C(\Cl)[S+]([O-])c1ccccc1 (configuration not stated)
- AC50 [1]: 0.438 µM (active)
- AC50 (INS1): 2.07 µM (active)

Structure (SMILES): Cc1ccc(C)c(S(=O)(=O)/N=C2\C=C(NS(=O)(=O)c3ccccc3)C(=O)c3ccccc32)c1
- IC50 (Protein skinhead-1): > 100 µM (inactive)

Structure (SMILES): CCCCCCCCCCCCCCCCn1cc[n+](C)c1
- IC50 (Phospholipase A2): 5.78 µM (active)
- AC50 [2]: 23.5 µM (active)
- IC50 [3]: 11.4 µM (not active)
- IC50 [4]: > 20 µM (inactive)

Reference: ChEMBL document CHEMBL1201862, “PubChem BioAssay data set” (2004)
